Measurements published in US7507581B2, “Inhibition of pancreatic islet aggregation” (Synthecon, Inc., priority 2005, dated 2009).
Entries after “also recorded” stand apart in the source; their conditions may differ.

Assays:
Format in all cases: cell-based
human pancreatic islets [1] = assay: Aggregation of high-density pancreatic islets in culture (RCCS bioreactor or petri dish)
Experimental: It is hypothesized that synthetic peptides containing the IKVAV peptide sequence (SEQ ID NO. 2) can inhibit the aggregation of islets cultures in the RCCS bioreactor. Experiments were performed to compare the aggregation of about 200-300 islets/ml cultured in the presence and absence of each peptide to be tested. Initial experiments added the peptide to the culture media in a small (10 ml) RCCS bioreactor vessel. It was realized that providing a large volume of culture media with sufficient concentrations of the PA22-2 peptide or another IKVAV-containing peptide component of laminin would be prohibitively expensive. Thus, the experimental protocol was altered as described below.
(§1) In each sample, the islets were allowed to settle at 1×g in a sterile centrifuge tube. Once the islets had settled, the supernatant was removed and replaced with 2 ml of media. Control samples of islets (Samples 2 and 4) were placed in the control media (i.e., CMRL-1066 media containing 10% bovine serum, 1% penicillin/streptomycin/amphotericin B, and 2 mM glutamine) and experimental samples of islets (Samples 3 and 5) were incubated with the control media to which 50 μg/ml IKVAV-containing peptide such as the PA22-2 (SEQ ID NO. 1) peptide had been added. The IKVAV-containing peptides are hereinafter referred to as laminin A chain peptide. […]
(§2) Samples 2 and 3 were transferred to standard culture dishes (petri dishes) at a cell density of approximately 200 islets/ml. […] After the Samples 2-5 had been cultured for 7 days, the islets were removed from the culture dish or RCCS bioreactor vessel and assessed for aggregation, apoptosis and ATP levels.
An aliquot of islets from each sample was fixed by washing the islets two times in phosphate buffered saline (PBS) and then transferring the washed samples to a 4% paraformaldehyde solution for 2 hours to fix the islets. […] The islets were analyzed for their, degree of aggregation by digitizing ten microscopic fields and measuring the cross sectional areas of the islets within each field with the image processing program NIH Image. […]

human pancreatic islets [2] = assay: ATP levels in cultured human pancreatic islets (luciferin/luciferase luminescence)
Experimental: as §1, §2
Islet ATP levels were measured by luciferin/luciferase luminescence. […] The cells were pelleted by centrifugation and 10 μl of the lysed cell supernatant was placed in a luminescence multiwell plate with 90 μl of reaction solution (25 mM Tricine pH 7.8, 5 mM MgSO4, 0.1 mM EDTA, 0.1 mM sodium azide with 0.5 mM lucifirin, 1 mM DTT and 12.5 μg of firefly luciferase). […]
The data from four experiments was analyzed by a one-way ANOVA. […]

human pancreatic islets [3] = assay: H & E stained thin sections of cultured human islets; settings: preincubated with peptide, 7 days in RCCS bioreactor; compared with petri dish control
Experimental: (§3) In each sample, the islets were allowed to settle at 1×g in a sterile centrifuge tube. Once the islets had settled, the supernatant was removed and replaced with 2 ml of media. Control samples of islets (Samples 2 and 4) were placed in the control media (i.e., CMRL-1066 media containing 10% bovine serum, 1% penicillin/streptomycin/amphotericin B, and 2 mM glutamine) and experimental samples of islets (Samples 3 and 5) were incubated with the control media to which 50 μg/ml IKVAV-containing peptide such as the PA22-2 (SEQ ID NO. 1) peptide had been added. The IKVAV-containing peptides are hereinafter referred to as laminin A chain peptide.
(§4) All four samples were gently mixed and placed in a humidified incubator for 3 hours at 37° C. At half hour intervals, the tubes containing the samples were gently inverted to prevent aggregation of the islet pellet.
Samples 2 and 3 were transferred to standard culture dishes (petri dishes) at a cell density of approximately 200 islets/ml. Samples 4 and 5 were transferred to 35 ml perfused RCCS bioreactor vessels at a cell density of approximately 200 islets/ml. All of the samples (Samples 2-5) were then cultured for 7 days. After the Samples 2-5 had been cultured for 7 days, the islets were removed from the culture dish or RCCS bioreactor vessel and assessed for aggregation, apoptosis and ATP levels. […]

[4] = test system: caspase 3 activity in cultured human pancreatic islets; assay: Caspase 3 activity (apoptosis) in cultured human pancreatic islets
Experimental: as §3, §4
Samples 2 and 3 were transferred to standard culture dishes (petri dishes) at a cell density of approximately 200 islets/ml. Samples 4 and 5 were transferred to 35 ml perfused RCCS bioreactor vessels at a cell density of approximately 200 islets/ml. […] After the Samples 2-5 had been cultured for 7 days, the islets were removed from the culture dish or RCCS bioreactor vessel and assessed for aggregation, apoptosis and ATP levels. […]
Fifty microliters of the lysed cell supernatant from each sample was transferred into a microplate well. […] The free rhodamine was measured by fluorescence (excitation/emission-496/520 nm). The fluorescence was quantitated using arbitrary fluorescence units derived by normalizing the rhodamine fluorescence to the quantity of DNA in the islet sample, which is directly proportional to cell number.
Experiments were performed to compare islet caspase 3 activity in islets cultured in conventional petri dishes (labeled in FIG. 3 as Dish) with islets preincubated with the laminin A chain peptide PA22-2 and cultured in an RCCS bioreactor (labeled in FIG. 3 as RCCS+ laminin). […] The data from four experiments was analyzed by a one-way ANOVA. Differences between the groups were determined by the Student-Newman Keuls test.

## CYS-SER-ARG-ALA-ARG-LYS-GLN-ALA-ALA-SER-ILE-LYS-VAL-ALA-VAL-SER-ALA-ASP-ARG (CSRARKQAASIKVAVSADR; laminin A chain) [PA22-2, 19 amino acid synthetic peptide containing residues 2091-2108 of the laminin A chain, IKVAV-containing]
Human pancreatic islets [1]; peptide added to RCCS-cultured islets, cell density about 200-300 islets/ml
  aggregation inhibiting activity: showed substantial aggregation inhibiting activity
Human pancreatic islets [1]; peptide left in the media during the entire culture period, petri dish
  adherence of islets to petri dish: caused the petri dish control islets to adhere to the non-stick petri dishes
Human pancreatic islets [1]; preincubated 3 hours with 50 μg/ml peptide, then seven-day culture in RCCS bioreactor, compared with no peptide
  degree of aggregation of islets: lower degree of aggregation; also recorded: sufficient to prevent aggregation of the islets in the RCCS bioreactor; also recorded: beneficial in preventing islet aggregation
Human pancreatic islets [2]; RCCS+laminin (Sample 5): preincubated with peptide, 7 days RCCS, vs Dish control (Sample 2), p<0.05, n=4
  ATP levels: significantly higher ATP levels
Human pancreatic islets [2]; Sample 3: preincubated 3 hours with 50 μg/ml peptide, 7 days petri dish, vs Dish control (100%), n=4
  ATP levels: tended to have higher ATP levels but the values did not have a p value less than 0.05
Human pancreatic islets [3]
  islet structure / membrane integrity (H & E thin sections): maintained their membrane integrity and appeared to be healthy and viable
[4]; Dish+ laminin: preincubated 3 hours with 50 μg/ml peptide, 7 days petri dish, vs Dish control (100%), n=4
  caspase 3 activity: slightly lower caspase 3 activity but the values did not have a p value less than 0.05; also recorded: no significant effect on islet caspase 3 activity
[4]; RCCS+ laminin (Sample 5): preincubated 3 hours with 50 μg/ml peptide, 7 days RCCS, vs RCCS-cultured islets without peptide (Sample 4)
  caspase 3 activity: less caspase 3 activity than the RCCS-cultured islets of Sample 4
[4]; RCCS+ laminin: preincubated 3 hours with 50 μg/ml peptide, 7 days RCCS, vs Dish control, p<0.05, n=4
  caspase 3 activity: significantly less caspase 3 activity than did the dish-cultured islets
